Test results: patent US9346839B2
Read-outs that look alike come from different tables or passages of the source.

Experiments:
ABAD = ABAD (Homo sapiens (Human), UniProt Q99714); assay: Surface plasmon resonance (BIACORE 3000) binding experiment with ABAD
Description: Binding Experiment with ABAD. The interactions between compounds and ABAD were performed using the dual flow cell BIACORE 3000 instrument. Surface Plasmon Resonance (SPR) studies were performed on a BIACORE 3000 at 25° C. SPR binding experiments with ABAD were performed in phosphate-buffered saline (PBS, pH 7.4, 0.005% surfactant P20) as the running and the sample buffer. […] ABAD was dissolved in PBS buffer (pH 5.0) at a concentration of 10 μg/ml. The protein was immobilized directly and covalently on the hydrophilic carboxymethylated dextran matrix of the CM5 sensor chip (BIACORE) by using the standard primary amine coupling reaction on a CM5 sensor chip according to standard procedures. After the immobilization of the protein, excess activated carboxylic acid groups were quenched with ethanolamine (1 M, pH 8.5).
Special care was taken during injection of samples because of carryover effects. Special washing routines were used to clean the system before injection of new samples. In addition, predipping of needles was performed. The sample flow was 40 μl/minute in experiments performed for the determination of the kinetic and equilibrium constants. Regeneration of the surfaces between subsequent binding experiments was achieved by washing the surface extensively (>>1 hour) with buffer solution. Data analyses were carried out using BIA evaluation software, and the sensor grams were processed by automatic correction for nonspecific bulk refractive index effects. The kinetic analyses of the ligand binding to the protein were performed based on the 1:1 Langmuir binding fit model according to the standard procedures described in the software manual.
To perform kinetic analyses of the binding of phosphonate derivatives to ABAD, the BIACORE 3000 instrument (based on surface plasmon resonance [SPR] technology) was used. The 1:1 Langmuir binding fit model was used for determining the equilibrium dissociation constant (KD), and the association (kon) and dissociation (koff) rate constants by using Equations (1) and (2). dR/dt=kon×C×(Rmax−R)−koff×R (1) Where R represents the response unit, C is the concentration of the analyte, and KD=koff/kon (2) The results were evaluated by χ2 analysis.

[1] = Stability of standards under temperature and storage conditions; type: physicochemical; details: standards in methanol; 25° C. short-term, −20° C. for twenty days
Description: Stability. The stability of compounds 4, 8, and 15 was evaluated in ACSF, plasma, and brain matrices under various temperature and storage conditions. Stability at room temperature was studied by analyzing samples at 25° C. for 2 and 4 hours and stability at −80° C. was checked for one month. Samples were analyzed after three (−80° C. to 25° C.) freeze-thaw cycles. Stability studies were performed at three concentrations.
Stability The stability of ABAD compounds were determined under different temperature and storage conditions. 4, 8 and 15 standards were dissolved in methanol and were subjected short-term exposure at 25° C. for and 4 hours long-term storage conditions were assessed at −20° C. for twenty days.

[2] = Pharmacokinetic study, plasma and brain levels by LC-MS/MS; type: in vivo; details: both sexes, C57BL6, mouse, intravenous 10 mg/kg, mice; for AUC(0-t): read-out: AUC0-48
Description: Liquid Chromatography (LC) Method for Mass Spectrometry (MS) Detection. Chromatographic separation was on an ACE C18 column (Mac Mod Analytical, 3 μm, Ultra-Inert HPLC Column, 50×2.1 mm) protected by a matched ACE guard cartridge. Separation solvents were A: H2O (99%), methanol (1%), and formic acid (0.1%) and B: H2O (1%), methanol (99%), and formic acid (0.1%) delivered at a flow rate of 400 μl/minute. The hydrophobic character of the analytes allows a large injection (50 μl) to chromatofocus on a column at 5% B. After 0.2 minutes separation was with a linear gradient of 11% B/minute for 4 minutes. Column wash was to 80% B for 2 minutes and re-equilibration at 5% B for 1.5 minutes for a total run-time of 8 minutes. The first 2 minutes of chromatographic effluent was diverted to waste.
Mass Spectrometry Parameters. The mass spectrometer was run in positive ion mode using the electrospray ionization (ESI) source. The source block was 100° C. and desolvation gas temperature 300° C. Argon collision gas pressure on a line to the cell was 1E-3 mbar. Quadrupoles 1 and 3 were set to 0.9 amu FWHH and collision energy and cone voltage settings were optimized for each compound. The data were processed using MassLynx 4.1/QuanLynx and Graphpad Prism 5. Fragmentation patterns of compounds 4, 8, and 15, methyl (Z)-3-(((6-methoxybenzo[d]thiazol-2-yl)imino)methyl)benzoate, 4-(1-((6-methoxybenzo-[d]thiazol-2-yl)amino)ethyl)phenol, and (Z)-1-(4-fluorophenyl)-N-(6-methoxybenzo[d]thiazol-2-yl) methanimine were determined by infusing an aqueous/methanol solution introduce with a T fitting into 30% solvent B from the UPLC for source optimization. The most abundant transitions were chosen for all the three compounds.
Plasma Sample Preparation. Mouse plasma samples, 50 μl, were transferred to a 1.5 ml centrifuge tube and then 50 μl of IS (4 μg/ml) and 50 μl of calibration standard sample were vortexed for 30 seconds. Acetonitrile (0.1 ml) was added to precipitate the proteins. After being vortexed for 3 minutes, the sample was centrifuged for 10 minutes at 13000 rpm. Supernatant (50 μl) was diluted with 50 μl water and injected onto the column.
Brain Sample Preparation. Brain tissue (100 mg) was weighed and placed in a centrifuge tube. Methanol (100 μl) was added and the mixture was homogenized for 1 minute before adding 100 μl IS (6 μg/ml) to the homogenized mixture. The sample was then vortexed for 30 seconds before centrifuging for 10 minute at 13000 rpm. The supernatant liquid was diluted 50% with water and injected.
Application to Pharmacokinetic Study and Data Analysis. Using the validated LCMS/MS method, blood and brain levels of 4, 8, and 15 were measured in male and female C57BL6 mice (8-10 week-old, weighing approximately 25-30 grams). The mice were housed in a room with controlled temperature (23±3° C.) and moisture level (55±15% relative humidity) and exposed to a controlled 12 hour light/12 hour dark cycle. They were allowed to access to food and water ad libitum. Mice were fasted for 6 hours with free access to water prior to the pharmacokinetic study. To determine the time course of compounds 4, 8, and 15 action in the brain, the plasma pharmacokinetics and BBB penetration capability of the inhibitors were investigated. In these experiments, compounds 4, 8, and 15 were administered to mice by intravenous injection at a dosage of 10 mg/kg. Blood and brain samples were collected from mouse at each time point (2, 5, 10, 30, 60, 120, 240, 360, 720, 1440, and 2880 minutes), a total of 11 time points. For plasma measurements, blood (approximately 500-800 μl) was collected via cardiac-puncture into tubes containing sodium heparin anti-coagulant. Plasma was separated via centrifugation (4° C., 3500 rpm, 10 minutes) and stored in −80° C. freezer. For qualitative confirmations of these compounds in CSF, samples were collected at 2 time points (240 and 1440 min) from five animals at each time point. […]

[3] = Solubility in solvents during method development; type: physicochemical
Description: Method Development. During the development of a detection method for analytes 4, 8 and 15, multiple solvents were tested to find the optimal mobile phase. […] Acetonitrile was selected for better peak shape and compatibility with serum/brain protein precipitation. Compounds 8 and 15 were chosen as IS, because of their structural similarity. Selected reaction monitoring (SRM) acquisitions were used for sensitivity and extended dynamic range. The cone voltage and collision energy were optimized for 4, 8 and 15 and the IS by continuously infusing a mixture of the two. The optimum cone voltage was 30V.

SK-N-SH cells = assay: ATP levels in Aβ-treated cells; type: cell-based; details: for ATP levels in Aβ-treated cells: 5 μM Aβ1-42 plus 1 μM compound; for ATP levels, inhibitor alone: without Aβ
Description: Forty-eight hour later, ATP levels (μmol mg^−1 protein) were measured in cell lysates.
Adenosine-5′-Triphosphate (ATP) Levels. To determine the effect of ABAD inhibitors on Aβ-induced impairment in energy metabolism, ATP levels were measured. […] ATP levels were measured in the cell lysates. […] Therefore, ABAD inhibitors can block mitochondrial dysfunction mediated by Aβ.

[4] = Table 7, 1:1 Langmuir binding fit, read-out: SPR KD

ABAD, sequence (Q99714 whole entry): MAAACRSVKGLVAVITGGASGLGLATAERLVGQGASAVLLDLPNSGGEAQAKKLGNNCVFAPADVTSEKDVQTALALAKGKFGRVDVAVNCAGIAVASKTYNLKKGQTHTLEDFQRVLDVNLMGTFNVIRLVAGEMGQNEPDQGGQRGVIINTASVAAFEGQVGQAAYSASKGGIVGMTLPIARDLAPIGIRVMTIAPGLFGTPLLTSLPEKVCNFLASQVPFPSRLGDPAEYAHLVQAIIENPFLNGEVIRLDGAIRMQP

Row | Compound | Kd (ABAD; [4]) | stability, variability across all samples [1] | AUC(0-inf) ([2]; Brain) | Cmax ([2]; Brain) | half-life ([2]; Brain) | AUC(0-t) ([2]; Brain) | AUC(0-inf) ([2]; Plasma) | Cmax ([2]; Plasma) | half-life ([2]; Plasma) | AUC(0-t) ([2]; Plasma) | solubility in methanol or acetonitrile [3] | solubility in water [3] | ATP levels in Aβ-treated cells (SK-N-SH cells) | ATP levels, inhibitor alone (SK-N-SH cells) | Kd (ABAD; Table 6, read-out: KD) | Tmax ([2]; Brain) | Tmax ([2]; Plasma)
1 | COc1ccc2nc(N[C@@H](c3ccc(O)cc3)P(=O)(OC)OC)sc2c1 (racemic) [Compound 8, Dimethyl ((4-hydroxyphenyl)((6-methoxybenzo[d]thiazol-2-yl)amino)methyl)phosphonate] | 291 nM | less than 10 % (RSD) | 7.1 ng·h/mL | 4.8 ng/mL | 8.3 h | 6.9 ng·h/mL | 2870 ng·h/mL | 2130 ng/mL | 5.5 h | 2860 ng·h/mL | dissolved readily in methanol or acetonitrile | dissolved partially in water | rescued ATP levels | comparable to cells treated with vehicle alone without Aβ |  |  | 
2 | COC(=O)c1cc([C@H](Nc2nc3ccc(OC)cc3s2)P(=O)(OC)OC)ccc1O [Compound 4, Methyl 5-((dimethoxyphosphoryl)((6-methoxybenzo[d]thiazol-2-yl)amino)methyl)-2-hydroxybenzoate] | 496 nM | less than 10 % (RSD) | 75.1 ng·h/mL | 50.7 ng/mL | 17.1 h | 66.5 ng·h/mL | 3030 ng·h/mL | 2370 ng/mL | 6.2 h | 3030 ng·h/mL | dissolved readily in methanol or acetonitrile | dissolved partially in water | rescued ATP levels | comparable to cells treated with vehicle alone without Aβ | 496 nM | 1.8 min | 1.8 min
3 | COc1ccc2nc(N[C@@H](c3ccc(F)cc3)P(=O)(OC)OC)sc2c1 [Compound 15, Dimethyl ((4-fluorophenyl)((6-methoxybenzo[d]thiazol-2-yl)amino)methyl)phosphonate] | 264 nM | less than 10 % (RSD) | 65.4 ng·h/mL | 44.3 ng/mL | 11.4 h | 64 ng·h/mL | 2990 ng·h/mL | 1980 ng/mL | 6.1 h | 2980 ng·h/mL | dissolved readily in methanol or acetonitrile | dissolved partially in water | rescued ATP levels | comparable to cells treated with vehicle alone without Aβ |  | 1.8 min | 1.8 min
